Among the test systems are Staphylococcus aureus; Salmonella typhimurium; Bacillus subtilis QB935; Bacillus thuringiensis; Serratia marcescens Db11; Micrococcus luteus A270; Alcaligenes faecalis; Escherichia coli D22; Aerococcus viridans; Pediococcus acidilactici; Bacillus megaterium; Listeria monocytogenes; Klebsiella pneumoniae.
Assay in all cases: ≥ marks a high value that may be exact or a test limit, other limits are often not marked, values filed in µg/mL are converted to µM
Assay [1] has as its system Pseudomonas aeruginosa ATCC 82118.
For assay [2], the system named is Enterobacter cloacae beta-12.
In assay [3] the test system is Staphylococcus saprophyticus.
Assay [4] concerns Shigella flexneri ATCC 203.
Assay [5] has as its system Escherichia coli ATCC 2592.
Assay [6] has as its system Staphylococcus epidermidis ATCC 12228.
In assay [7] the test system is Pseudomonas aeruginosa ATCC 9027.
Assay [8] relates to Candida albicans ATCC 36232.
Assay [9] has as its system Staphylococcus aureus ATCC 6538.
Assay [10] relates to Bacillus subtilis ATCC 6633.
In assay [11] the test system is Micrococcus luteus ATCC 9341.
For assay [12], the system named is Corynebacterium diphtheriae ATCC 8024.
Assay [13] relates to Escherichia coli PCM 2057.
In assay [14] the test system is Staphylococcus aureus PCM 1944.

What is called MIC is the lowest concentration found to suppress growth. Low values mean greater potency, high ones weaker potency.

Values after ≈ are worked out from the molar mass of the structure shown. Where only a bound is given, the exact number is not on record here.

Regarding `CC[C@H](C)[C@@H]1NC(=O)[C@H](CC(=O)O)NC(=O)[C@@H](NC(=O)[C@@H](NC(=O)[C@H](C)N)[C@@H](C)O)CSSC[C@@H]2NC(=O)[C@H](CCC(N)=O)NC(=O)CNC(=O)CNC(=O)[C@H](CCCCN)NC(=O)[C@H](Cc3ccc(O)cc3)NC(=O)CNC(=O)[C@H](CCCCN)NC(=O)[C@H]([C@@H](C)CC)NC(=O)[C@H](C(C)C)NC(=O)[C@@H]3CSSC[C@@H](C(=O)N[C@@H](CCCN=C(N)N)C(=O)N[C@@H](CCCN=C(N)N)C(=O)O)NC(=O)[C@H](Cc4cnc[nH]4)NC(=O)[C@H](CSSC[C@H](NC(=O)CNC(=O)[C@H](C)NC(=O)[C@H](Cc4cnc[nH]4)NC(=O)[C@H](CC(N)=O)NC(=O)[C@@H]4CCCN4C(=O)[C@H]([C@@H](C)O)NC(=O)[C@H](C(C)C)NC(=O)[C@H](Cc4c[nH]c5ccccc45)NC(=O)[C@H](CCC(N)=O)NC(=O)[C@H](CO)NC(=O)[C@H](CCC(N)=O)NC(=O)[C@H](Cc4ccccc4)NC(=O)[C@H](CO)NC(=O)[C@H](CC(C)C)NC1=O)C(=O)N[C@@H](C)C(=O)N[C@@H](CC(C)C)C(=O)N[C@@H](Cc1cnc[nH]1)C(=O)N3)NC(=O)[C@H](C(C)C)NC(=O)[C@H]([C@@H](C)O)NC(=O)[C@H]([C@@H](C)CC)NC(=O)[C@H](CCCCN)NC2=O` [ATCDILSFQSQWVTPNHAGCALHCVIKGYKGGQCKITVCHCRR], the MIC is 0.88 µM (≈ 4.16 µg/mL) against Staphylococcus aureus; 5 µM (≈ 23.6 µg/mL) in the assay on Salmonella typhimurium; 3.54 µM (≈ 16.7 µg/mL) in the assay with Bacillus subtilis QB935; 5 µM (≈ 23.6 µg/mL) with Bacillus thuringiensis; 5 µM (≈ 23.6 µg/mL) against Serratia marcescens Db11; 0.212 µM (≈ 1 µg/mL) against Micrococcus luteus A270. The MIC in the assay on Alcaligenes faecalis amounted to 5 µM (≈ 23.6 µg/mL); against Escherichia coli D22, 3.54 µM (≈ 16.7 µg/mL); against Aerococcus viridans, 0.424 µM (≈ 2.01 µg/mL); against Pediococcus acidilactici, 3.54 µM (≈ 16.7 µg/mL); against Bacillus megaterium it was 0.212 µM (≈ 1 µg/mL); in the assay with Listeria monocytogenes it was 5 µM (≈ 23.6 µg/mL). For the same compound, the MIC is > 5 µM with Klebsiella pneumoniae, 5 µM (≈ 23.6 µg/mL) in [1], 5 µM (≈ 23.6 µg/mL) in [2] and 1.77 µM (≈ 8.36 µg/mL) in [3].

As for `CC(C)[C@H](NC(=O)[C@H](CS)NC(=O)[C@@H](NC(=O)[C@H](CCCN=C(N)N)NC(=O)[C@H](CCCCN)NC(=O)CNC(=O)[C@@H](N)CC(N)=O)C(C)C)C(=O)N[C@@H](CS)C(=O)N[C@@H](CCCN=C(N)N)C(N)=O` [NGKRVCVCR], the MIC in assay [4] was ≥ 96.7 µM; in [5], ≥ 96.7 µM; with Staphylococcus aureus, > 96.7 µM; in [6], > 96.7 µM; in assay [7], > 96.7 µM; in [8] it was ≥ 96.7 µM. The MIC is > 96.7 µM in assay [9], ≥ 96.7 µM in assay [10], ≥ 96.7 µM in assay [11] and ≥ 96.7 µM in assay [12].

With `CC[C@H](C)[C@@H]1NC(=O)[C@H](CO)NC(=O)[C@H](CCCCN)NC(=O)[C@@H](NC(=O)[C@H](CCCN=C(N)N)NC(=O)[C@H](Cc2ccccc2)NC(=O)[C@H](Cc2cnc[nH]2)NC(=O)[C@@H](NC(=O)[C@H](CCCCN)NC(=O)[C@H](Cc2ccccc2)NC(=O)[C@@H]2CCCN2C(=O)[C@@H](NC(=O)[C@H](CC(N)=O)NC(=O)[C@H](C)NC(=O)[C@H](C)N)[C@@H](C)CC)C(C)C)CSSC[C@@H](C(=O)O)NC(=O)[C@H](Cc2ccccc2)NC1=O` [AANIPFKVHFRCKSIFC], the MIC in [13] and in assay [14] was ≥ 505 µM throughout.
